We go through two molecules from patent publication US9682982B2, “Inhibitors of adapter associated kinase 1, compositions comprising them, and methods of their use” (Lexicon Pharmaceuticals, Inc., priority 2014, dated 2017).

Molecules are shown by their SMILES.

The target of experiment [1] is T1, AAK1 (full length human, NCBI accession no. NP_055726.2) (Homo sapiens, UniProt Q2M2I8). Description: P81 Filter Plate Assay. Particulars: 0.2 nM AAK1 and 2 μM ATP in 2× mixes, 33P-ATP, one hour at RT; read-out: P81 assay result (inhibition of AAK1 phosphorylation of Mu2). Details: NP_055726.2. Type of experiment: biochemical. As for the experimental part:
Compounds were serially diluted into a Labcyte LDV plate (Labcyte, cat #LP-0200) using a Mutiprobe (PerkinElmer) and Biomek FX (Beckman Coulter) so that the highest compound concentration was at 96 μM. Compounds were then pinged (75 nL per well) into a Greiner 384-well reaction plate (Greiner, #781076) using an ECHO 550 Liquid Handler (Labcyte). A total of 12 μl reaction buffer (IMAP buffer containing Tween and DTT, from Molecular Devices) was then added to each well of columns 1 and 13 for the negative controls and 12 μl of 2×AAK1 (0.2 nM full-length human protein, NCBI accession no. NP_055726.2) was added to the remaining wells. Enzyme was then pre-incubated with compound for 10 minutes at RT. Reactions were initiated upon Minitrak (PerkinElmer) addition of 12 μl substrate mix containing 2× Mu2 (0.2 μM, full length human protein), 2× cold ATP (2 μM), and 1.3 μCi of hot ^33P-ATP. Reactions proceeded for one hour at RT. Meanwhile, Millipore 384-well P81 filter plates (Millipore, catalog #MZPHNOW10) were placed on a plate washer (Zoom ZW, from Titertek) and pre-wet with 50 μl 1% phosphoric acid. […] The bottom of each filter plate was sealed followed by addition of 20 μl Microscint 40 to each well, sealing the top of the plates with Flashplate cover, and then waiting one hour until reading on the TopCount (PerkinElmer).

In experiment [2] the target is T1, AAK1 (full length human, NCBI accession no. NP_055726.2). Kind of experiment: HEK281 Cell-Based Assay (phospho-mu2 Western blot in HEK293F cells transfected with AAK1 and AP2M1). Details: HA; expressed in transfected cells; host or cells: HEK293F. The following applies: 3 hours incubation, read-out: HEK281 cell-based assay IC50 (inhibition of mu2 phosphorylation). On the procedure: HEK293F cells were cultured in media containing DMEM (Gibco, cat. #11965), 10% FBS (SAFC Biosciences, cat. #12103C), 1×GPS (glutamine, penicillin and streptomycin). On day one, cells were plated on a 10 cm dish so that they are ˜80% confluent at time of transfection. Roughly 12 million cells were in a 10 cm dish at time of transfection. On day two, each dish was transfected with 48 ug DNA and 144 ul Lipofectamine 2000 (Invitrogen, cat. #11668-019). The DNA was comprised of a mixture (per 10 cm dish) containing 3 ug AAK1/HA/pIRES (full length human, NCBI accession no. NP_055726.2), 45 μg Flag/AP2MI/pcDNA (full length human), and 1.5 ml OPTI-MEM. The Lipofectamine 2000 is made up of a mixture (per 10 cm dish) containing 144 μl Lipofectamine 2000 and 1.5 ml OPTI-MEM. Each mixture was transferred to individual 15 ml tubes and incubated at RT for 5 minutes, and then the two mixes were combined and incubated at RT for 20 minutes. Growth media was then aspirated from each 10 cm plate and replaced with 10 ml of DMEM+10% FBS (no GPS). Finally, 3 ml DNA/Lipofectamine mix was added to each 10 cm dish and mix gently followed by incubate of plate overnight at 37° C. and 5% CO2.
On day three, compounds were diluted in 100% DMSO at 1000× final concentration, followed by 3-fold serial dilutions for a total of 5 concentrations tested. Four compounds were tested per 10 cm dish. […]
In general terms: In western blotting, separated proteins are transferred to a membrane and probed.

Experiment [3] deals with tactile allodynia after spinal nerve ligation in mice. Kind of experiment: Mouse Chung Assay (spinal nerve ligation, von Frey tactile allodynia). In kind it is in vivo. The following applies: P<0.0001 in RM ANOVA, FIG. 6. From the text:
The compound 3-methyloxetan-3-yl-4-(3-(2-methoxypyridin-3-yl)pyrazolo[1,5-a]pyrimidin-5-yl)piperazine-1-carboxylate was studied in the Chung assay. See Chaplan S R, Bach F W, Pogrel J W, Chung J M, Yaksh T L., Quantitative assessment of tactile allodynia in the rat paw, J Neurosci Methods 1994; 53:55-63; Chung J M, Kim H K, Chung K., Segmental spinal nerve ligation model of neuropathic pain, Methods Mol Med. 2004; 99:35-45.
Wild-type hybrid (C57BL/6J-Tyr^c-Brd×129S5/SvEvBrd) male mice were between 5-7 weeks of age at the time of spinal nerve ligation by the conventional Chung protocol. Spinal nerve ligation was carried out according to the procedure devised by Kim and Chung with modifications. Briefly, mice were anesthetized with isoflurane (2% at the oxygen flow rate of […]). A skin incision (1 cm) was made 1 mm to the left of the dorsal midline, using the level of iliac crests as the mid point of the incision. […] In an initial experiment using hybrid mice, the presumptive locations of spinal nerve L5 and L6 were determined by using the sacroiliac junction as the landmark to locate L6, as previously described in SNL models in rats and mice. […] Mice were individually housed after the procedure and were monitored until complete recovery from anesthesia. […]

Experiment [4] has as its system formalin-induced nociception in male C57 mice. Kind of experiment: Formalin Assay (paw flinching). The following applies: male C57 mice, 1, 3, 10 and 30 mpk, given 30 minutes prior to formalin; one-way ANOVA P<0.01 dose effect; FIG. 4 and 5. Type of experiment: in vivo, mouse. As for the experimental part:
Mice were tested for nociception with Automatic Nociception Analyzers (purchased from the Ozaki lab at University of California, San Diego). A metal band was placed around the left hind paw of each mouse with superglue 30 minutes prior to testing. After the 30-minute acclimation period, 20 μl of 5% formalin was subcutaneously injected in the dorsal surface of the left hind paw. Mice were individually housed in cylindrical chambers for 45 minutes. Fresh 5% formalin solution was prepared by diluting formaldehyde (Formalde-fresh 20%, Fisher Scientific, Fair Lawn, N.J.) with distilled water. Investigatory compounds were administered 30 minutes prior to formalin injection.
A computer software recorded flinches per minute, total flinches for Phase I (acute phase=first 8 minutes), and total flinches for Phase II (tonic phase between 20-40 minutes) through an electromagnetic field. See Yaksh T L, Ozaki G, McCumber D, Rathbun M, Svensson C, Malkmus S, Yaksh M C. An automated flinch detecting system for use in the formalin nociceptive bioassay. J Appl Physiol., 2001; 90:2386-402.

The subject of experiment [5] is PC12 cells. The following applies: Kuai et al. 2011; cited from earlier work.
The target of experiment [6] is AAK1 (Homo sapiens, UniProt Q2M2I8). Particulars: cited from earlier work.
Sequence of AAK1 (Q2M2I8 whole entry, species assumed): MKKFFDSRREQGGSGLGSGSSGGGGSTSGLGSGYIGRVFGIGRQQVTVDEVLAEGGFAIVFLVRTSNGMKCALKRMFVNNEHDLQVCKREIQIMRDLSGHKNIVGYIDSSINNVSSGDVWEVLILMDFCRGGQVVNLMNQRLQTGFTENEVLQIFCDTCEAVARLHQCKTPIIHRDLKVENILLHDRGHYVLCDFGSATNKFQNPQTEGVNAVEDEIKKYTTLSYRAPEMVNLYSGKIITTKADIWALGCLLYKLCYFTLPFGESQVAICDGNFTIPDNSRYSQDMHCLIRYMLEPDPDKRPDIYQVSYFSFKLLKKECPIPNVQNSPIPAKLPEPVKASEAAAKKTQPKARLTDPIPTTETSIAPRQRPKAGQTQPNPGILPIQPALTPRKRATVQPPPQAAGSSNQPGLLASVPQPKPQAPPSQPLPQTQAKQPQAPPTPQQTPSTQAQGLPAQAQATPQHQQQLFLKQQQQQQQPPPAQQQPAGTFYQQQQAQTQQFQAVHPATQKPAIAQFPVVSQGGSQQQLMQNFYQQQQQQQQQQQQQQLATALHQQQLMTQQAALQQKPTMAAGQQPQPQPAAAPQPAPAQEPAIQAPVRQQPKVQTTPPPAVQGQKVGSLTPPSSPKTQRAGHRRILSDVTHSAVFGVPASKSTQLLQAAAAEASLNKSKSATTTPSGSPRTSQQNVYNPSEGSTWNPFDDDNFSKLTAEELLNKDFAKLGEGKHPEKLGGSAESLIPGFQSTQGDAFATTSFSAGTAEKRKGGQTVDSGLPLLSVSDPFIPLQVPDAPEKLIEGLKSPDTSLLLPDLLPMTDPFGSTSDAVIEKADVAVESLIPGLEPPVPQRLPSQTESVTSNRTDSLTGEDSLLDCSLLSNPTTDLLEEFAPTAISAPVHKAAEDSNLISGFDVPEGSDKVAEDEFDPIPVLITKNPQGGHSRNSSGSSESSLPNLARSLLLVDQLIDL

T1 sequence (Q2M2I8 1-863 isoform Q2M2I8-2): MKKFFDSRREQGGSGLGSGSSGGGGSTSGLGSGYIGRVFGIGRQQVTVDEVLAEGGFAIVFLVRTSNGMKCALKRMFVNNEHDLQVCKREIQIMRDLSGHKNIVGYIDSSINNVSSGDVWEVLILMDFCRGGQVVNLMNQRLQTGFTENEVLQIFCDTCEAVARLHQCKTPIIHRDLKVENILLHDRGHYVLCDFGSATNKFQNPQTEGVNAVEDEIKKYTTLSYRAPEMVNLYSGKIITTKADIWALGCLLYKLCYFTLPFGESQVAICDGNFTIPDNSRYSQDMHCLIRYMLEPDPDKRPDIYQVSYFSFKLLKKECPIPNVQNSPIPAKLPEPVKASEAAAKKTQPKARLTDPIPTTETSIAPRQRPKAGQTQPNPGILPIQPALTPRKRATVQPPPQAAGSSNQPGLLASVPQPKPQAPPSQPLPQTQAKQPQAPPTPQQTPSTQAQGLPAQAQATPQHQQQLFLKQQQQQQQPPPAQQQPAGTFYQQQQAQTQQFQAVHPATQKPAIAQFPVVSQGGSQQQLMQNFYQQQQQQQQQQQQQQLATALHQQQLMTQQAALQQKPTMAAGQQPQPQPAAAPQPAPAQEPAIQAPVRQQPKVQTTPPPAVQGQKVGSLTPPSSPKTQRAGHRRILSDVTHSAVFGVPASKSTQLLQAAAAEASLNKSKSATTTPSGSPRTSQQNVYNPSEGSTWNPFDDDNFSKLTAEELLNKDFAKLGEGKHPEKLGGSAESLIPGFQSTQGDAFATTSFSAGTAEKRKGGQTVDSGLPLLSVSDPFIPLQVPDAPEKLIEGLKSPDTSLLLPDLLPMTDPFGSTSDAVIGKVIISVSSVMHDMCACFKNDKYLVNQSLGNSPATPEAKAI

For `COc1ncccc1-c1cnn2ccc(N3CCN(C(=O)OC4(C)COC4)CC3)nc12` [3-methyloxetan-3-yl-4-(3-(2-methoxypyridin-3-yl)pyrazolo[1,5-a]pyrimidin-5-yl)piperazine-1-carboxylate], the IC50 in experiment [1] is 0.9 nM; in experiment [2], 4.7 nM. For the same molecule, in experiment [3], the “Effect in the Chung assay (von Frey 50% withdraw threshold)” value was “dose-dependent, significantly significant effect”. Besides, in experiment [4], the “Formalin phase 2 (tonic phase) flinches versus vehicle” value is “dramatic effect”.

As to `COC(=O)[C@@]1(O)C[C@H]2O[C@]1(C)n1c3ccccc3c3c4c(c5c6ccccc6n2c5c31)C(=O)NC4` [K252a], the “Effect on Neuregulin-1 induced neurite outgrowth” value in experiment [5] was “potentiation of Neuregulin-1 induced neurite outgrowth”. Besides, the “Effect on AAK1 kinase activity” value in experiment [6] was “inhibits AAK1 kinase activity”.
